Measurements published in patent US10844015B2, “Pyridine dicarboxamide derivatives as bromodomain inhibitors” (GlaxoSmithKline Intellectual Property (No. 2) Limited, priority 2016, dated 2020).

Columns and labels:
[1] = target: T1, BRD4 BD2 (Homo sapiens, UniProt O60885, Y97A); test: BRD4 BD2 TR-FRET competition assay; format: binding; conditions: single mutant tandem BRD4 protein; for IC50: read-out: pIC50 in the BRD4 BD2 assay (converted)
T1 construct: BRD4 (1-477) (Y97A) and (Y390A); made in house; host or cells: E. coli (pET15b vector)
Experimental: Time Resolved Fluorescence Resonance Energy Transfer (TR-FRET) Assay
Bromodomain binding was assessed utilising a time resolved fluorescent resonance energy transfer (TR-FRET) competition assay. To enable this approach a known, high affinity, pan-BET interacting small molecule was labelled with Alexa Fluor® 647, which is a far-red-fluorescent dye (Reference Compound X). Reference Compound X acts as a reporter of bromodomain binding and is the acceptor fluorophore component of the TR-FRET pair. Europium chelate, conjugated to an anti-6*His antibody, was utilised as the donor fluorophore in the TR-FRET pair. […] A TR-FRET signal is generated when the donor and acceptor fluorophores are in close proximity, between 20-80 Å, which is enabled in this assay by binding of Reference Compound X to the bromodomain protein.
In order to generate a TR-FRET signal, donor fluorophore is excited by a laser at A337 nm, which subsequently leads to emission at A618 nm. If the acceptor fluorophore is in close proximity then energy transfer can occur, which leads to emission of Alexa Fluor® 647 at A665 nm. In the presence of competitor compound, Reference Compound X can be displaced from binding to the bromodomain. If displacement occurs, the acceptor fluorophore is no longer in proximity to the donor fluorophore, which prevents fluorescent energy transfer and, subsequently, a loss of Alexa Fluor® 647 emission at λ665 nm.
(§1) The competition of the compounds of formula (I) with Reference Compound X for binding to the BET family (BRD2, BRD3, BRD4 and BRDT) was assessed using protein truncates spanning both bromodomain 1 (BD1) and bromodomain 2 (BD2). In order to monitor differential binding to either BD1 or BD2, single residue mutations of key tyrosines to alanine were made in the acetyl lysine binding pockets. To validate this approach, a double residue mutant tandem domain protein was produced for each of the BET family members. Utilising a Fluorescence Polarisation approach, binding affinities for each of the single and double mutants for Reference Compound X were determined.
Final purification was completed by Superdex 200 prep grade size exclusion column. Purified protein was stored at −80° C. in 20 mM HEPES pH 7.5 and 100 mM NaCl.
Protocol for Bromodomain BRD2, 3, 4 and T, BD1+BD2 Mutant TR-FRET Competition Assays:
(§2) All assay components were dissolved in an assay buffer composing of 50 mM HEPES pH7.4, 50 mM NaCl, 5% Glycerol, 1 mM DTT and 1 mM CHAPS. […] The solution containing bromodomain and Reference Compound X was added to dose response dilutions of test compound or DMSO vehicle (a maximum of 0.5% DMSO is used in this assay) in Greiner 384 well black low volume microtitre plates and subsequently incubated for 30 minutes at room temperature. An equal volume of 3 nM of anti-6*His Europium chelate was added to all wells, followed by a further 30 minute incubation at room temperature. TR-FRET was detected using a Perkin Elmer Multimode plate reader, by exciting the donor fluorophore at λ337 nm and subsequently, after a delay of 50 μsecs, measuring emission of the donor and acceptor fluorophores at λ615 nm and λ665 nm, respectively. In order to control these assays, 16 replicates each of uninhibited (DMSO vehicle) and inhibited (10*IC50 concentrations of Example 11 of WO 2011/054846A1) TR-FRET assays were included on every microtitre plate.
cA four parameter curve fit of the following form was then applied: y=a+((b−a)/(1+(10^x/10^c)^d) • Where ‘a’ is the minimum, ‘b’ is the Hill slope, ‘c’ is the pIC50 and ‘d’ is the maximum.
(§3) All compounds (Examples) were each tested in the BRD4 BD1 and the BRD4 BD2 TR-FRET assays essentially as described above. Those of skill in the art will recognise that in vitro binding assays and cell-based assays for functional activity are subject to experimental variability. Accordingly, it is to be understood that the pIC50 values given below are exemplary only. pIC50 values are expressed as log10 units.

[2] = system: BRD4 BD2 over BRD4 BD1; test: Calculation of selectivity for BRD4 BD2 over BRD4 BD1 from the TR-FRET assays; format: binding, Human; conditions: for selectivity for BRD4 BD2 over BRD4 BD1: BRD4 BD2 pIC50 − BRD4 BD1 pIC50, in at least one of the TR-FRET assays; for fold selective for BRD4 BD2 over BRD4 BD1: stated from the log unit selectivity
Experimental: as §1, §2, §3
Calculation of Selectivity for BRD4 BD2 Over BRD4 BD1
Selectivity for BRD4 BD2 over BRD4 BD1 was calculated as follows: Selectivity=BRD4BD2pIC50−BRD4BD1pIC50

[3] = system: BET family (BRD2, BRD3, BRD4 and BRDT) tandem bromodomain proteins; test: Fluorescence Polarisation binding affinities of single and double mutant tandem BET proteins for Reference Compound X; parameters: species or system Human
Experimental: as §1, with “determined. […] The affinities of the single mutated bromdomain tandem proteins for Reference Compound X were equi-potent with the corresponding non-mutated BET protein. […] In the TR-FRET competition assay, Reference Compound X is used at a concentration that is equivalent to the Kd for the non-mutated bromodomain, which ensures that no binding at the mutated bromodomain is detected.” for “determined.”
Recombinant Human Bromodomains [(BRD2 (1-473) (Y113A) and (Y386A), BRD3 (1-435) (Y73A) and (Y348A) BRD4 (1-477) (Y97A) and (Y390A) and BRDT (1-397) (Y66A) and (Y309A)] were expressed in E. coli cells (in pET15b vector for BRD2/3/4 and in pET28a vector for BRDT) with a 6-His tag at the N-terminal. The His-tagged Bromodomain pellet was resuspended in 50 mM HEPES (pH7.5), 300 mM NaCl, 10 mM imidazole & 1 μL/mL protease inhibitor cocktail and extracted from the E. coli cells using sonication and purified using a nickel sepharose high performance column, the proteins were washed and then eluted with a linear gradient of 0-500 mM imidazole with buffer 50 mM HEPES (pH7.5), 150 mM NaCl, 500 mM imidazole, over 20 column volumes. Final purification was completed by Superdex 200 prep grade size exclusion column. Purified protein was stored at −80° C. in 20 mM HEPES pH 7.5 and 100 mM NaCl. Protein identity was confirmed by peptide mass fingerprinting and predicted molecular weight confirmed by mass spectrometry.

Structure (SMILES)	IC50 [1] [µM]	selectivity for BRD4 BD2 over BRD4 BD1 [2] [log unit]	fold selective for BRD4 BD2 over BRD4 BD1 [2]	further results
CNC(=O)c1cc(C(=O)N[C@H]2C[C@@H]2C)cc(Cc2cccc3c2CCN3)n1 [Example 83, 6-(indolin-4-ylmethyl)-N^2-methyl-N^4-((1S,2S)-2-methylcyclopropyl)pyridine-2,4-dicarboxamide]	0.0316	2.9	at least 100 fold	–
COc1ccc2c(c1)C(c1ccc(Cl)cc1)=N[C@@H](CC(=O)NCCCCCNC(=O)CCCCCC1(C)/C(=C/C=C/C=C/C3=[N+](CCCCS(=O)(=O)O)c4ccc(S(=O)(=O)O)cc4C3(C)C)N(CCCCS(=O)(=O)[O-])c3ccc(S(=O)(=O)O)cc31)c1nnc(C)n1-2 (stereo partly drawn) [Reference Compound X]	–	–	–	reduction in Kd (affinity) of double mutant tandem proteins in comparison to wild type tandem BET proteins ([3]; double residue (Tyr to Ala) mutant tandem domain proteins): > 1000 fold; reduction of Kd of the interaction between the mutated bromodomain and Reference Compound X ([3]; single mutation of Tyrosine to Alanine): > 1000 fold; affinity of single mutated bromodomain tandem proteins versus corresponding non-mutated BET protein ([3]; single residue (Tyr to Ala) mutants): equi-potent
CNC(=O)c1cc(C(=O)N[C@H]2C[C@@H]2C)cc(Cn2ccccc2=O)n1 [Example 54, N^2-Methyl-N^4-((1S,2S)-2-methylcyclopropyl)-6-((2-oxopyridin-1(2H)-yl)methyl)pyridine-2,4-dicarboxamide]	1 to 10	–	–	–
CNC(=O)c1cc(C(=O)N[C@H]2C[C@@H]2C)cc(C(OC)c2ccnc3[nH]ccc23)n1 (relative stereo) [Example 106, 6-((R*-Methoxy(1H-pyrrolo[2,3-b]pyridin-4-yl)methyl)-N^2 methyl-N^4-((1S,2S)-2-methylcyclopropyl)pyridine-2,4-dicarboxamide]	–	–	at least 1000 fold	pIC50 in the BRD4 BD2 assay [1]: 7.6 log10 units
CNC(=O)c1cc(C(=O)NC2CC2C)cc(C(C)c2cncc3[nH]ccc23)n1 [Example 49, 6-((S*-1-(1H-Pyrrolo[2,3-c]pyridin-4-yl)ethyl)-N^2-methyl-N^4 ((1S,2S)-2-methylcyclopropyl)pyridine-2,4-dicarboxamide]	0.0126	2.8	at least 100 fold	–
CNC(=O)c1cc(C(=O)NC2CC2)cc([C@@H](O)c2ccccc2C)n1 (single isomer, unassigned) [Example 116, (S*)-N^4-cyclopropyl-6-(hydroxy(o-tolyl)methyl)-N^2-methylpyridine-2,4-dicarboxamide]	1 to 10	–	–	–
CNC(=O)c1cc(C(=O)N[C@H]2C[C@@H]2C)cc(Cc2cncc3[nH]ccc23)n1 [Example 46, 6-((1H-Pyrrolo[2,3-c]pyridin-4-yl)methyl)-N^2-methyl-N^4-((1S,2S)-2-methylcyclopropyl)pyridine-2,4-dicarboxamide]	0.0794	2.8	at least 100 fold	–
CNC(=O)c1cc(C(=O)N[C@H]2C[C@@H]2C)cc(Cc2ccnc3[nH]ccc23)n1 [Example 80, 6-((1H-Pyrrolo[2,3-b]pyridin-4-yl)methyl)-N^2-methyl-N^4-((1S,2S)-2-methylcyclopropyl)pyridine-2,4-dicarboxamide]	0.0398	–	at least 1000 fold	–
